The results in this text go back to ChEMBL document CHEMBL5584255, “Synthesis and antibacterial medicinal evaluation of carbothioamido hydrazonyl thiazolylquinolone with multitargeting antimicrobial potential to combat increasingly global resistance” (Eur J Med Chem, 2024).

Holding throughout (type): functional
In assay [1] the test system is Escherichia coli. Briefly: Antibacterial activity against Escherichia coli ATCC 25922 by microbroth dilution method.
The subject of assay [2] is Escherichia coli. Briefly: Antibacterial activity against drug-resistant Escherichia coli by microbroth dilution method.
Assay [3] deals with Candida albicans. Briefly: Antifungal activity against drug-resistant Candida albicans.
A further assay deals with Aspergillus fumigatus. Briefly: Antifungal activity against Aspergillus fumigatus.
The subject of assay [4] is Pseudomonas aeruginosa. Put plainly: Antibacterial activity against Pseudomonas aeruginosa ATCC 27853 by microbroth dilution method.
The subject of assay [5] is Staphylococcus aureus. Put plainly: Antibacterial activity against Staphylococcus aureus ATCC 29213 by microbroth dilution method. (In general: In broth dilution the organism is exposed to a series of concentrations in liquid medium.)
A further assay deals with Acinetobacter baumannii. Put plainly: Antibacterial activity against Acinetobacter baumannii by microbroth dilution method.
In assay [6] the test system is Pseudomonas aeruginosa. Put plainly: Antibacterial activity against Pseudomonas aeruginosa by microbroth dilution method.
The subject of another assay is Enterococcus faecalis. Briefly: Antibacterial activity against drug-resistant Enterococcus faecalis by microbroth dilution method.
The next assay has as its system Klebsiella pneumoniae. Put plainly: Antibacterial activity against Klebsiella pneumoniae by microbroth dilution method.
In assay [7] the test system is Staphylococcus aureus. Put plainly: Antibacterial activity against methicillin-resistant Staphylococcus aureus N315 by microbroth dilution method.
Assay [8] concerns Staphylococcus aureus. Put plainly: Antibacterial activity against Staphylococcus aureus ATCC 25923 by microbroth dilution method.
Assay [9] relates to Staphylococcus aureus. Put plainly: Antibacterial activity against drug-resistant Staphylococcus aureus by microbroth dilution method.
The subject of assay [10] is Candida albicans. Put plainly: Antifungal activity against Candida albicans ATCC 90023.
The next assay relates to Candida tropicalis. Briefly: Antifungal activity against drug-resistant Candida tropicalis.
For the next assay, the system named is Candida parapsilosis. Put plainly: Antifungal activity against Candida parapsilosis ATCC 22019. Particulars: Lodderomyces parapsilosis.

In brackets after ≈: the same amount, converted by molar mass.

Usually MIC stands for the lowest concentration that inhibits growth of the organism. A high value points to weaker potency. As to `C/C(Cn1cc(-c2csc(C)n2)c(=O)c2cc(F)ccc21)=N\NC(N)=S`, the minimum inhibitory concentration (MIC) in the assay on Escherichia coli [1], in the assay on Escherichia coli [2], with Candida albicans [3], with Aspergillus fumigatus, in the assay on Pseudomonas aeruginosa [4] and against Staphylococcus aureus [5] was 658 µM (≈ 256 µg/mL) throughout. Further, the MIC amounted to 658 µM (≈ 256 µg/mL) in the assay with Acinetobacter baumannii; 658 µM (≈ 256 µg/mL) with Pseudomonas aeruginosa [6]; 1320 µM (≈ 513 µg/mL) in the assay on Enterococcus faecalis; 165 µM (≈ 64.3 µg/mL) in the assay with Klebsiella pneumoniae; 658 µM (≈ 256 µg/mL) against Staphylococcus aureus [7]; 658 µM (≈ 256 µg/mL) against Staphylococcus aureus [8]. Besides, the MIC was 658 µM (≈ 256 µg/mL) with Staphylococcus aureus [9], 658 µM (≈ 256 µg/mL) in the assay with Candida albicans [10], 1320 µM (≈ 513 µg/mL) against Candida tropicalis and 329 µM (≈ 128 µg/mL) against Candida parapsilosis.
Consider `CC(=O)Cn1cc(-c2csc(N)n2)c(=O)c2cc(F)ccc21`, for which the MIC against Escherichia coli [1], against Escherichia coli [2], in the assay on Candida albicans [3], in the assay on Aspergillus fumigatus, against Pseudomonas aeruginosa [4] and against Staphylococcus aureus [5] was 404 µM (≈ 128 µg/mL) in each case. Further, the MIC against Acinetobacter baumannii was determined as 807 µM (≈ 256 µg/mL); against Pseudomonas aeruginosa [6], 404 µM (≈ 128 µg/mL); in the assay on Enterococcus faecalis it was 807 µM (≈ 256 µg/mL); against Klebsiella pneumoniae, 807 µM (≈ 256 µg/mL); in the assay with Staphylococcus aureus [7] it was 404 µM (≈ 128 µg/mL); in the assay on Staphylococcus aureus [8], 202 µM (≈ 64.1 µg/mL). The MIC in the assay with Staphylococcus aureus [9] came to 404 µM (≈ 128 µg/mL); against Candida albicans [10], 51 µM (≈ 16.2 µg/mL); against Candida tropicalis, 404 µM (≈ 128 µg/mL); in the assay on Candida parapsilosis, 1620 µM (≈ 513 µg/mL).
Consider `C/C(Cn1cc(-c2csc(N)n2)c(=O)c2cc(F)c(Cl)cc21)=N\O`, for which the MIC against Escherichia coli [1] stood at 22 µM (≈ 8.07 µg/mL); in the assay on Escherichia coli [2] it was 350 µM (≈ 128 µg/mL); in the assay with Candida albicans [3] it was 87 µM (≈ 31.9 µg/mL); against Aspergillus fumigatus it was 699 µM (≈ 256 µg/mL); in the assay with Pseudomonas aeruginosa [4], 44 µM (≈ 16.1 µg/mL); with Staphylococcus aureus [5], 44 µM (≈ 16.1 µg/mL). Besides, the minimum inhibitory concentration (MIC) is 350 µM (≈ 128 µg/mL) in the assay on Acinetobacter baumannii; 87 µM (≈ 31.9 µg/mL) in the assay on Pseudomonas aeruginosa [6]; 350 µM (≈ 128 µg/mL) against Enterococcus faecalis; 699 µM (≈ 256 µg/mL) with Klebsiella pneumoniae; 350 µM (≈ 128 µg/mL) in the assay on Staphylococcus aureus [7]; 44 µM (≈ 16.1 µg/mL) against Staphylococcus aureus [8]. The MIC against Staphylococcus aureus [9] turned out to be 44 µM (≈ 16.1 µg/mL); in the assay with Candida albicans [10], 44 µM (≈ 16.1 µg/mL); in the assay on Candida tropicalis it was 699 µM (≈ 256 µg/mL); against Candida parapsilosis, 44 µM (≈ 16.1 µg/mL).
Turning to `CC(=O)Cn1cc(-c2csc(C)n2)c(=O)c2cccc(F)c21`, the MIC against Escherichia coli [1] stood at 810 µM (≈ 256 µg/mL); against Escherichia coli [2], 810 µM (≈ 256 µg/mL); against Candida albicans [3] it was 810 µM (≈ 256 µg/mL); in the assay on Aspergillus fumigatus, 1620 µM (≈ 512 µg/mL); against Pseudomonas aeruginosa [4], 405 µM (≈ 128 µg/mL); against Staphylococcus aureus [5] it was 810 µM (≈ 256 µg/mL). For the same molecule, the MIC against Acinetobacter baumannii was found to be 405 µM (≈ 128 µg/mL); against Pseudomonas aeruginosa [6] it was 1620 µM (≈ 512 µg/mL); in the assay on Enterococcus faecalis it was 810 µM (≈ 256 µg/mL); in the assay with Klebsiella pneumoniae, 1620 µM (≈ 512 µg/mL); in the assay with Staphylococcus aureus [7] it was 810 µM (≈ 256 µg/mL); against Staphylococcus aureus [8], 405 µM (≈ 128 µg/mL). For the same molecule, the minimum inhibitory concentration (MIC) against Staphylococcus aureus [9] came to 810 µM (≈ 256 µg/mL); against Candida albicans [10], 810 µM (≈ 256 µg/mL); in the assay with Candida tropicalis, 405 µM (≈ 128 µg/mL); with Candida parapsilosis it was 405 µM (≈ 128 µg/mL).
In the case of `Cc1nc(-c2c[nH]c3c(F)cc(F)cc3c2=O)cs1`, the minimum inhibitory concentration (MIC) in the assay on Escherichia coli [1] worked out at 921 µM (≈ 256 µg/mL); in the assay with Escherichia coli [2] it was 1840 µM (≈ 513 µg/mL); in the assay with Candida albicans [3] it was 1840 µM (≈ 513 µg/mL); in the assay on Aspergillus fumigatus, 921 µM (≈ 256 µg/mL); with Pseudomonas aeruginosa [4] it was 1840 µM (≈ 513 µg/mL); in the assay on Staphylococcus aureus [5] it was 460 µM (≈ 128 µg/mL). In addition, the minimum inhibitory concentration (MIC) turned out to be 921 µM (≈ 256 µg/mL) against Acinetobacter baumannii; 1840 µM (≈ 513 µg/mL) in the assay on Pseudomonas aeruginosa [6]; 460 µM (≈ 128 µg/mL) in the assay on Enterococcus faecalis; 460 µM (≈ 128 µg/mL) against Klebsiella pneumoniae; 460 µM (≈ 128 µg/mL) in the assay on Staphylococcus aureus [7]; 460 µM (≈ 128 µg/mL) in the assay with Staphylococcus aureus [8]. For the same molecule, the minimal inhibitory concentration (MIC) against Staphylococcus aureus [9] worked out at 921 µM (≈ 256 µg/mL); against Candida albicans [10], 460 µM (≈ 128 µg/mL); against Candida tropicalis, 921 µM (≈ 256 µg/mL); with Candida parapsilosis, 921 µM (≈ 256 µg/mL).
With `CC(=O)Cn1cc(-c2csc(N)n2)c(=O)c2cc(F)c(F)cc21`, the MIC with Escherichia coli [1] was 382 µM (≈ 128 µg/mL); against Escherichia coli [2] it was 764 µM (≈ 256 µg/mL); against Candida albicans [3] it was 764 µM (≈ 256 µg/mL); with Aspergillus fumigatus, 382 µM (≈ 128 µg/mL); against Pseudomonas aeruginosa [4], 382 µM (≈ 128 µg/mL); against Staphylococcus aureus [5], 382 µM (≈ 128 µg/mL). In addition, the minimum inhibitory concentration (MIC) came to 382 µM (≈ 128 µg/mL) against Acinetobacter baumannii; 382 µM (≈ 128 µg/mL) in the assay on Pseudomonas aeruginosa [6]; 382 µM (≈ 128 µg/mL) against Enterococcus faecalis; 764 µM (≈ 256 µg/mL) with Klebsiella pneumoniae; 382 µM (≈ 128 µg/mL) against Staphylococcus aureus [7]; 382 µM (≈ 128 µg/mL) in the assay on Staphylococcus aureus [8]. Moreover, the MIC turned out to be 382 µM (≈ 128 µg/mL) against Staphylococcus aureus [9], 382 µM (≈ 128 µg/mL) in the assay on Candida albicans [10], 764 µM (≈ 256 µg/mL) in the assay with Candida tropicalis and 764 µM (≈ 256 µg/mL) with Candida parapsilosis.
Turning to `CCOC(=O)c1cn(C/C(C)=N/NC(N)=S)c2cc(F)c(F)cc2c1=O`, the minimal inhibitory concentration (MIC) in the assay with Escherichia coli [1] came out at 670 µM (≈ 256 µg/mL); against Escherichia coli [2] it was 670 µM (≈ 256 µg/mL); with Candida albicans [3], 1340 µM (≈ 512 µg/mL); in the assay on Aspergillus fumigatus, 670 µM (≈ 256 µg/mL); with Pseudomonas aeruginosa [4], 335 µM (≈ 128 µg/mL); against Staphylococcus aureus [5], 335 µM (≈ 128 µg/mL). Besides, the MIC in the assay with Acinetobacter baumannii was determined as 335 µM (≈ 128 µg/mL); in the assay on Pseudomonas aeruginosa [6], 670 µM (≈ 256 µg/mL); with Enterococcus faecalis, 335 µM (≈ 128 µg/mL); against Klebsiella pneumoniae, 670 µM (≈ 256 µg/mL); in the assay with Staphylococcus aureus [7], 1340 µM (≈ 512 µg/mL); with Staphylococcus aureus [8] it was 670 µM (≈ 256 µg/mL). The MIC in the assay on Staphylococcus aureus [9] amounted to 670 µM (≈ 256 µg/mL); in the assay on Candida albicans [10] it was 670 µM (≈ 256 µg/mL); against Candida tropicalis, 670 µM (≈ 256 µg/mL); against Candida parapsilosis, 335 µM (≈ 128 µg/mL).
